Source: ChEMBL document CHEMBL1201862, “PubChem BioAssay data set” (2004)
Active and inactive are the calls of the source.

Columns and labels:
[1] = Luminescence Cell-Based Dose Response HTS to Identify Inhibitors of 5'UTR Stem-Loop Driven Prion Protein mRNA Translation in H4 Neuroglioblastoma Cells. [Related pubchem assays: 1827 (Project Summary), 1813 (Primary HTS)]; format: functional
[2] = microbe, parasite or virus in culture; format: functional; settings: Mycobacterium tuberculosis
[3] = inhibitors of firefly luciferase expression or activity, dose response, H4 neuroglioma cells, luminescence (AID 1990); format: functional, cell-based
[4] = A High Throughput Confirmatory Assay used to Identify Novel Compounds that Inhibit Mycobacterium Tuberculosis in the absence of Glycerol.; format: functional
[5] = inhibitors of SNCA 5'UTR-driven reporter translation, confirmation, H4 neuroglioma cells, luminescence (AID 1988); format: functional, cell-based
[6] = target: Solute carrier family 12 member 2/member 5 (Homo sapiens, UniProt P55011+Q9H2X9); test: KCC2 and NKCC1 inhibition by rubidium flux, cell-based, NKCC1 counter-screen (AID 1734); format: functional, HEK293
[7] = target: T1, Tyrosine-protein phosphatase non-receptor type 7 (Homo sapiens, UniProt P35236); test: inhibitors of human HePTP phosphatase, […], biochemical, absorbance, leukemia target (AID 521); format: functional
T1 sequence (P35236 whole entry): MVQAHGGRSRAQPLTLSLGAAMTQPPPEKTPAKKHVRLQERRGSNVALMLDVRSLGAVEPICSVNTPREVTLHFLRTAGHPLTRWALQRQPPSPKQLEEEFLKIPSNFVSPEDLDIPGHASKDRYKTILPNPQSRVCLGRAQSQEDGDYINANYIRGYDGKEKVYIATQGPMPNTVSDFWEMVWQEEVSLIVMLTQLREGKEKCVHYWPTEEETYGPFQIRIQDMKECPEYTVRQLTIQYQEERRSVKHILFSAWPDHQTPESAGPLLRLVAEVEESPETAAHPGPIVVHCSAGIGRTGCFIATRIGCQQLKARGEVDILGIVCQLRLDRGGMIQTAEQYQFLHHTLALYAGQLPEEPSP

Estrogen receptor = target: T2, Estrogen receptor (Homo sapiens, UniProt P03372); test: ERα–SRC-3 coactivator interaction inhibitors, confirmation, orthogonal assay, biochemical, ELISA, streptavidin-HRP readout (AID 1079)
T2 sequence (P03372 whole entry): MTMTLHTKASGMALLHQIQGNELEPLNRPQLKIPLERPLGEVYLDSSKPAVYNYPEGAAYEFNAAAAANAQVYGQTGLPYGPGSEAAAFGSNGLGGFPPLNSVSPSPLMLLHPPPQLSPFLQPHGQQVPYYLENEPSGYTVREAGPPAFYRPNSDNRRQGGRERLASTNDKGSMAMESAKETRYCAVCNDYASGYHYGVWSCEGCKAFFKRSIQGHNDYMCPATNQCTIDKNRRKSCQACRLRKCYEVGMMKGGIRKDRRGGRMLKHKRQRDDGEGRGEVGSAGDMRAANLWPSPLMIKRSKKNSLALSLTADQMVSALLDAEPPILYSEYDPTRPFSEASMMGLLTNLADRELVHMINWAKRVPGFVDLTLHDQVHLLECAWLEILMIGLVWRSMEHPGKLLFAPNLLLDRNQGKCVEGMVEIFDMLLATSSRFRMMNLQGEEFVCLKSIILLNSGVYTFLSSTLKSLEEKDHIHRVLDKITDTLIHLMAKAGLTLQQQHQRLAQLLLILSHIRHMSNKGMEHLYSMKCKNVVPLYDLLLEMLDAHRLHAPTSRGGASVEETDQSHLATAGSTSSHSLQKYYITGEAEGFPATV

Cytochrome P450 2C19 = Cytochrome P450 2C19 (Homo sapiens, UniProt P33261); test: Cytochrome panel assay with activity outcomes. Panel member name: p450-cyp2c19 Compounds with AC50 equal or less than 10 uM are considered active; format: functional
Cytochrome P450 2C19, sequence (P33261 whole entry): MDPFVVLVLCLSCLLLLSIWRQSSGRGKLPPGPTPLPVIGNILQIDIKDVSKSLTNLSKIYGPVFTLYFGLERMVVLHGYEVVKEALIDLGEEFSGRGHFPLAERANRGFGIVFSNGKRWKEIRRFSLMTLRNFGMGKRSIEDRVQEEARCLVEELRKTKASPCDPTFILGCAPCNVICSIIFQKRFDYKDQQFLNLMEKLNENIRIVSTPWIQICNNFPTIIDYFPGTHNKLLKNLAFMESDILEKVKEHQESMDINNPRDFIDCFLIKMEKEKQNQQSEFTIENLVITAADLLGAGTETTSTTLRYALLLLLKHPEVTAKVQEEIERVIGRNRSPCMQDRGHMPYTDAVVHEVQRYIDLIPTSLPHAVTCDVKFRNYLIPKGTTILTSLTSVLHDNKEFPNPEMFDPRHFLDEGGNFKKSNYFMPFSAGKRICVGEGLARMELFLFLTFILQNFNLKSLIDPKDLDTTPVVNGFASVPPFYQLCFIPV

[8] = target: E3 ubiquitin-protein ligase Mdm2 (Homo sapiens, UniProt Q00987); test: enhancers of MDM2-luciferase reporter signal, concentration-effect titration, project on inhibitors of MDM2 ubiquitin ligase, cellular assay, luminescent readout, 384-well plate format (AID 1394); format: functional;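 further: MDM2 E3 inhibitors raise luminescence so EC50 is for signal enhancement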
E3 ubiquitin-protein ligase Mdm2, sequence (Q00987 whole entry): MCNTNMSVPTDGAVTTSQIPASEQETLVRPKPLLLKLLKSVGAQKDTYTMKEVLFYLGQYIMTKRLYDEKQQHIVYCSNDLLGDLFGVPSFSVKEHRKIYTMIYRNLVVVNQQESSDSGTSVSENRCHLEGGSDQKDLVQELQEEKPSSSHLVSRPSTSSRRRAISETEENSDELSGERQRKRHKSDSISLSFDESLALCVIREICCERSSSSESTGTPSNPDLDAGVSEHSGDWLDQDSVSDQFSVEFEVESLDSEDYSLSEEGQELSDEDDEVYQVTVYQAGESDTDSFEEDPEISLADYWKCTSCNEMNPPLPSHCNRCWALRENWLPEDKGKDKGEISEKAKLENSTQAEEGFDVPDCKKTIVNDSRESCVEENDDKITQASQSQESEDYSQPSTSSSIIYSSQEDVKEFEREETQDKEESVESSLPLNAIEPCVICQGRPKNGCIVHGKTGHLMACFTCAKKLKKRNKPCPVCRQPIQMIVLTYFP

[9] = Vero E6 cell cytotoxicity, dose response, cytotoxicity control for non-replicating M. tuberculosis project, secondary assay (AID 492998); format: functional, VeroE6; settings: Vero C1008
cells = format: functional
[10] = Luminescent dose response cell-based high throughput screening assay for inhibitors of the Janus kinase 2 mutant JAK2V617F. [Related pubchem assays: 1446 (Primary screen.), 1521 (Confirmation assay.), 1486 (Counter screen.)]; format: functional

CC(C)CNc1nnnc2c1sc1nc(N3CCOCC3)c3c(c12)CC(C)(C)SC3
EC50 [1]: 35.1 µM (active)
CC50 [2]: > 40 µM (active)
EC50 [3]: 19.2 µM (active)
IC50 [4]: > 100 µM (active)
EC50 [5]: 14.3 µM (active)

CCCn1c(N)c(C(=O)CSc2nnc(Cc3ccccc3)o2)c(=O)n(C)c1=O
IC50 [6]: 1.6 µM (active)

O=C(Nc1cc(C(F)(F)F)ccc1Cl)C1CCN(c2nnc(-n3cccc3)s2)CC1
IC50 [7]: > 100 µM (not active)

O=C(CCCCCn1c(=S)[nH]c2ccccc2c1=O)N1CCN(c2ncccn2)CC1
IC50 (Estrogen receptor): 0.12 µM (not active)

CCN1CCN(C(=O)CCc2nc3ccccc3c(=O)[nH]2)CC1
AC50 (Cytochrome P450 2C19): inconclusive
EC50 [8]: 12.5 µM (not active)

O=C(O)c1[nH]c(=O)[nH]c(=O)c1F
CC50 [9]: > 20 µM (active)
CC50 [2]: > 40 µM (active)
IC50 (cells): 5.96 µM (active)
IC50 [10]: 4.12 µM (active)
